US9868772B2 (INDIANA UNIVERSITY RESEARCH AND TECHNOLOGY CORPORATION, priority 2012, dated 2018)
Numbered stars: 1 amine (or outer) side, 2 acyl side, 3 side chain; on linkers, the order of the positions; unused ones are H or OH. Square brackets hold non-standard residues; d marks the D form. Side chains are listed from the residue outwards. Peptide text beside a SMILES is read from it. * marks the point of attachment. γGlu = O=C(O)[C@H](CCC(=O)[*:2])N[*:1]; Desaminohistidyl = O=C(CCc1c[nH]cn1)*; Palmitoyl = CCCCCCCCCCCCCCCC(=O)*

How the values were obtained:
Assay in all cases: cAMP induction, firefly luciferase reporter assay in HEK293 cells co-transfected with receptor
Format in all cases: cell-based
GIP receptor = target: T1, GIP receptor (Homo sapiens, UniProt P48546)
T1 construct: expressed in transfected cells; host or cells: HEK293
T1 sequence (P48546 22-466): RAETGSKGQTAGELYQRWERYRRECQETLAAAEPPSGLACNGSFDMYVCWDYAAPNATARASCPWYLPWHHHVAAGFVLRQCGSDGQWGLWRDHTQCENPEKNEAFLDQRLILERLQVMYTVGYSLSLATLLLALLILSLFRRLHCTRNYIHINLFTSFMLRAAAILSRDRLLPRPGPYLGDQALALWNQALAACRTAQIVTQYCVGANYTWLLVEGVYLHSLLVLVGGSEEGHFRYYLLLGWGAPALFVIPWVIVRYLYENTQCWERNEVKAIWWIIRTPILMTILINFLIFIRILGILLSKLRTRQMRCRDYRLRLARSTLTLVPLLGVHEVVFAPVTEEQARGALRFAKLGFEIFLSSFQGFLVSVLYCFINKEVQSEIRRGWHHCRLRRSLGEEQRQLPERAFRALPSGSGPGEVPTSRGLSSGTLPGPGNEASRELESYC
Experimental: (§1) The ability of glucagon analogs to induce cAMP was measured in a firefly luciferase-based reporter assay. […] At the end of the incubation 100 microliters of LucLite luminescence substrate reagent (Perkin-Elmer, Wellesley, Mass.) were added to each well. […] Effective 50% concentrations were calculated by using Origin software (OriginLab, Northampton, Mass.

GLP-1 receptor = target: T2, GLP-1 receptor (Homo sapiens, UniProt P43220)
T2 construct: expressed in transfected cells; host or cells: HEK293
Experimental: as §1

glucagon receptor = target: T3, glucagon receptor (Homo sapiens, UniProt P47871)
T3 construct: expressed in transfected cells; host or cells: HEK293
Experimental: as §1

[1] = Table 1, analogs of SEQ ID NO: 37
[2] = Table 2, analogs of SEQ ID NO: 10

T3 sequence (P47871 26-477): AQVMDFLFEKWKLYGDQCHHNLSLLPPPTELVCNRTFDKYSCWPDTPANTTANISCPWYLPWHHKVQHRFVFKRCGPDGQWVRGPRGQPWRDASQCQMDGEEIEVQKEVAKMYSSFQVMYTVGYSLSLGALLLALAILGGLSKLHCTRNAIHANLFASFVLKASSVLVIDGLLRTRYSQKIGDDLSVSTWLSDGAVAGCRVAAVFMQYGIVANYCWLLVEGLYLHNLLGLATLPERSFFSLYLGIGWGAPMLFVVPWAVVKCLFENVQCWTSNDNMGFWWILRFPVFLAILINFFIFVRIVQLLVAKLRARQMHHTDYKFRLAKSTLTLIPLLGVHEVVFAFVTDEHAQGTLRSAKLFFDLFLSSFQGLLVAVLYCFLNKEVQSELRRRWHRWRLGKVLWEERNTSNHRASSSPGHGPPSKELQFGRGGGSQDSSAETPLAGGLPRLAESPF
T2 sequence (P43220 24-463): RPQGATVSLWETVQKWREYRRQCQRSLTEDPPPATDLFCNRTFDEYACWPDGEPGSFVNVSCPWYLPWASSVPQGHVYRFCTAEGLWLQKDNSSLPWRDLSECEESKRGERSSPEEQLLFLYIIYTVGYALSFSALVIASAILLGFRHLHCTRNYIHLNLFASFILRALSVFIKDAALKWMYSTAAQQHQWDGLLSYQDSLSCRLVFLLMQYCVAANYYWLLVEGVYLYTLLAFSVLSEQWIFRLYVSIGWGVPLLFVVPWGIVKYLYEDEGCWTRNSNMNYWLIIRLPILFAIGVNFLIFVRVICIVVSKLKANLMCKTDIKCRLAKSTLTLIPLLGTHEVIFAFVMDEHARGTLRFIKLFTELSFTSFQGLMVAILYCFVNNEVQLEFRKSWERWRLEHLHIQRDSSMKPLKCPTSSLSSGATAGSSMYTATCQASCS

For `CCCCCCCCCCCCCCCC(=O)N[C@@H](CCC(=O)NCCCC[C@H](NC(=O)[C@H](CC(=O)O)NC(=O)[C@H](CO)NC(=O)[C@@H](NC(=O)[C@H](Cc1ccccc1)NC(=O)[C@@H](NC(=O)CNC(=O)[C@H](CCC(N)=O)NC(=O)CNC(=O)[C@@H](Cc1ccc(O)cc1)NC(C)=O)[C@@H](C)O)[C@@H](C)O)C(=O)N[C@@H](CO)C(=O)N[C@@H](CCCCN)C(=O)N[C@@H](Cc1ccc(O)cc1)C(=O)N[C@@H](CC(C)C)C(=O)N[C@@H](CC(=O)O)C(=O)N[C@@H](CCC(=O)O)C(=O)N[C@@H](CCCNC(=N)N)C(=O)N[C@@H](C)C(=O)N[C@@H](C)C(=O)N[C@@H](CCC(N)=O)C(=O)N[C@@H](CC(=O)O)C(=O)N[C@@H](Cc1ccccc1)C(=O)N[C@H](C(=O)N[C@@H](CCC(N)=O)C(=O)N[C@@H](Cc1c[nH]c2ccccc12)C(=O)N[C@@H](CC(C)C)C(=O)N[C@@H](CC(C)C)C(=O)N[C@@H](CCC(=O)O)C(=O)NCC(=O)NCC(=O)N1CCC[C@H]1C(=O)N[C@@H](CO)C(=O)N[C@@H](CO)C(=O)NCC(=O)N[C@@H](C)C(=O)N1CCC[C@H]1C(=O)N1CCC[C@H]1C(=O)N1CCC[C@H]1C(=O)N[C@@H](CO)C(N)=O)C(C)C)C(=O)O` [compound 14] (Ac-[dY]GQGTFTSDK([γGlu-Palmitoyl])SKYLDERAAQDFVQWLLEGGPSSGAPPPS-NH2), the EC50 (GIP receptor; [1]) was 5 pM, the EC50 (GLP-1 receptor; [1]) was 22 pM and the EC50 (glucagon receptor; [1]) was 5 pM.

For `CCCCCCCCCCCCCCCC(=O)N[C@@H](CCC(=O)NCCCC[C@H](NC(=O)[C@H](CC(=O)O)NC(=O)[C@H](CO)NC(=O)[C@@H](NC(=O)[C@H](Cc1ccccc1)NC(=O)[C@@H](NC(=O)CNC(=O)[C@H](CCC(N)=O)NC(=O)CNC(=O)CCc1c[nH]cn1)[C@@H](C)O)[C@@H](C)O)C(=O)N[C@@H](CO)C(=O)N[C@@H](CCCCN)C(=O)N[C@@H](Cc1ccc(O)cc1)C(=O)N[C@@H](CC(C)C)C(=O)N[C@@H](CC(=O)O)C(=O)N[C@@H](CCC(=O)O)C(=O)N[C@@H](CCCNC(=N)N)C(=O)N[C@@H](C)C(=O)N[C@@H](C)C(=O)N[C@@H](CCC(N)=O)C(=O)N[C@@H](CC(=O)O)C(=O)N[C@@H](Cc1ccccc1)C(=O)N[C@H](C(=O)N[C@@H](CCC(N)=O)C(=O)N[C@@H](Cc1c[nH]c2ccccc12)C(=O)N[C@@H](CC(C)C)C(=O)N[C@@H](CC(C)C)C(=O)N[C@@H](CCC(=O)O)C(=O)NCC(=O)NCC(=O)N1CCC[C@H]1C(=O)N[C@@H](CO)C(=O)N[C@@H](CO)C(=O)NCC(=O)N[C@@H](C)C(=O)N1CCC[C@H]1C(=O)N1CCC[C@H]1C(=O)N1CCC[C@H]1C(=O)N[C@@H](CO)C(N)=O)C(C)C)C(=O)O` [compound 31] (Desaminohistidyl-GQGTFTSDK([γGlu-Palmitoyl])SKYLDERAAQDFVQWLLEGGPSSGAPPPS-NH2), the EC50 (GIP receptor; [1]) was 226 pM, the EC50 (GLP-1 receptor; [1]) was 3 pM and the EC50 (glucagon receptor; [1]) was 22 pM.

Molecule `CCCCCCCCCCCCCCCC(=O)N[C@@H](CCC(=O)NCCCC[C@H](NC(=O)[C@H](CC(=O)O)NC(=O)[C@H](CO)NC(=O)[C@@H](NC(=O)[C@H](Cc1ccccc1)NC(=O)[C@@H](NC(=O)CNC(=O)[C@H](CCC(N)=O)NC(=O)[C@H](C)NC(=O)[C@@H](Cc1c[nH]cn1)NC(C)=O)[C@@H](C)O)[C@@H](C)O)C(=O)N[C@@H](CO)C(=O)N[C@@H](CCCCN)C(=O)N[C@@H](Cc1ccc(O)cc1)C(=O)N[C@@H](CC(C)C)C(=O)N[C@@H](CC(=O)O)C(=O)N[C@@H](CCC(=O)O)C(=O)N[C@@H](CCCNC(=N)N)C(=O)N[C@@H](C)C(=O)N[C@@H](C)C(=O)N[C@@H](CCC(N)=O)C(=O)N[C@@H](CC(=O)O)C(=O)N[C@@H](Cc1ccccc1)C(=O)N[C@H](C(=O)N[C@@H](CCC(N)=O)C(=O)N[C@@H](Cc1c[nH]c2ccccc12)C(=O)N[C@@H](CC(C)C)C(=O)N[C@@H](CC(C)C)C(=O)N[C@@H](CCC(=O)O)C(=O)N[C@@H](C)C(=O)NCC(=O)N1CCC[C@H]1C(=O)N[C@@H](CO)C(=O)N[C@@H](CO)C(=O)NCC(=O)N[C@@H](C)C(=O)N1CCC[C@H]1C(=O)N1CCC[C@H]1C(=O)N1CCC[C@H]1C(=O)N[C@@H](CO)C(N)=O)C(C)C)C(=O)O` [compound 151] (Ac-[dH]AQGTFTSDK([γGlu-Palmitoyl])SKYLDERAAQDFVQWLLEAGPSSGAPPPS-NH2) has an EC50 (GIP receptor; [2]) of 14 pM, an EC50 (GLP-1 receptor; [2]) of 2 pM and an EC50 (glucagon receptor; [2]) of 3 pM.

For `CCCCCCCCCCCCCCCC(=O)N[C@@H](CCC(=O)NCCCC[C@H](NC(=O)[C@H](CC(=O)O)NC(=O)[C@H](CO)NC(=O)[C@@H](NC(=O)[C@H](Cc1ccccc1)NC(=O)[C@@H](NC(=O)CNC(=O)[C@H](CC(C)C)NC(=O)[C@H](C)NC(=O)[C@@H](Cc1ccc(O)cc1)NC(C)=O)[C@@H](C)O)[C@@H](C)O)C(=O)N[C@@H](CO)C(=O)N[C@@H](CCCCN)C(=O)N[C@@H](Cc1ccc(O)cc1)C(=O)N[C@@H](CC(C)C)C(=O)N[C@@H](CC(=O)O)C(=O)N[C@@H](CCC(=O)O)C(=O)N[C@@H](CCCNC(=N)N)C(=O)N[C@@H](C)C(=O)N[C@@H](C)C(=O)N[C@@H](CCC(N)=O)C(=O)N[C@@H](CC(=O)O)C(=O)N[C@@H](Cc1ccccc1)C(=O)N[C@H](C(=O)N[C@@H](CCC(N)=O)C(=O)N[C@@H](Cc1c[nH]c2ccccc12)C(=O)N[C@@H](CC(C)C)C(=O)N[C@@H](CC(C)C)C(=O)N[C@@H](CCC(=O)O)C(=O)NCC(=O)NCC(=O)N1CCC[C@H]1C(=O)N[C@@H](CO)C(=O)N[C@@H](CO)C(=O)NCC(=O)N[C@@H](C)C(=O)N1CCC[C@H]1C(=O)N1CCC[C@H]1C(=O)N1CCC[C@H]1C(=O)N[C@@H](CO)C(N)=O)C(C)C)C(=O)O` [compound 142] (Ac-[dY]ALGTFTSDK([γGlu-Palmitoyl])SKYLDERAAQDFVQWLLEGGPSSGAPPPS-NH2), the EC50 (GIP receptor; [2]) was 2 pM, the EC50 (GLP-1 receptor; [2]) was 5 pM and the EC50 (glucagon receptor; [2]) was 103 pM.

In the case of `CCCCCCCCCCCCCCCC(=O)N[C@@H](CCC(=O)NCCCC[C@H](NC(=O)[C@H](CC(=O)O)NC(=O)[C@H](CO)NC(=O)[C@@H](NC(=O)[C@H](Cc1ccccc1)NC(=O)[C@@H](NC(=O)CNC(=O)[C@H](CCC(N)=O)NC(=O)[C@H](C)NC(=O)[C@H](Cc1ccc(O)cc1)NC(C)=O)[C@@H](C)O)[C@@H](C)O)C(=O)N[C@@H](CO)C(=O)N[C@@H](CCCCN)C(=O)N[C@@H](Cc1ccc(O)cc1)C(=O)N[C@@H](CC(C)C)C(=O)N[C@@H](CC(=O)O)C(=O)N[C@@H](CCC(=O)O)C(=O)N[C@@H](CCCNC(=N)N)C(=O)N[C@@H](C)C(=O)N[C@@H](C)C(=O)N[C@@H](CCC(N)=O)C(=O)N[C@@H](CC(=O)O)C(=O)N[C@@H](Cc1ccccc1)C(=O)N[C@H](C(=O)N[C@@H](CCC(N)=O)C(=O)N[C@@H](Cc1c[nH]c2ccccc12)C(=O)N[C@@H](CC(C)C)C(=O)N[C@@H](CC(C)C)C(=O)N[C@@H](CCC(=O)O)C(=O)NCC(=O)NCC(=O)N1CCC[C@H]1C(=O)N[C@@H](CO)C(=O)N[C@@H](CO)C(=O)NCC(=O)N[C@@H](C)C(=O)N1CCC[C@H]1C(=O)N1CCC[C@H]1C(=O)N1CCC[C@H]1C(=O)N[C@@H](CO)C(N)=O)C(C)C)C(=O)O` [compound 155] (Ac-YAQGTFTSDK([γGlu-Palmitoyl])SKYLDERAAQDFVQWLLEGGPSSGAPPPS-NH2), the EC50 (GIP receptor; [2]) is reported as 37 pM, the EC50 (GLP-1 receptor; [2]) is reported as 60 pM and the EC50 (glucagon receptor; [2]) is reported as 7 pM.
